Patent publication US5340829A, “Immunoregulatory agents” (priority 1992, dated 1994)
Entries after “also recorded” stand apart in the source; their conditions may differ.

Key:
[1] = tested on: ear swelling produced by topical application of arachidonic acid; assay: Ear swelling produced by topical arachidonic acid (Experiment 22); assay type: in vivo, mice
[2] = tested on: primary response to sheep red blood cells (SRBC); assay: Direct plaque forming cell (PFC) assay, primary response to sheep red blood cells (Experiment 6); assay type: in vivo, C57BL/6J mice
Description: A control group received only the buffer vehicle (carbonate buffer, 0.01M, pH 9.5). Six hours after the first dose, the mice received 0.1 ml of a 20% SRBC solution intraperitoneally. The mice were sacrificed four days later. The spleens were harvested, and the spleen cells were tested in a modified Cunningham plaque assay. Cunningham, A. V., Nature (London) 207:1106 1965.

[3] = tested on: delayed type hypersensitivity (DTH) response to DNFB; assay: Delayed-type hypersensitivity (DTH) ear swelling, DNFB-primed mice (Experiments 2-3); assay type: in vivo, C57BL/6J mice
Description: (§1) Delayed type hypersensitivity, which involves the participation of T lymphocytes and macrophages, can be studied in vivo by exposing (or priming) a mammal to a novel antigen and then reexposing (or challenging) the primed animal to the same antigen four to seven days later. The classic DTH response includes symptoms of inflammatory response, induration and erythema, which peak at 24 to 48 hours after challenging and then decline slowly.
(§2) Eight-week old female C57BL/6J mice (Jackson Labs) were divided into primed and unprimed groups. The five mice in the primed group were primed to 2,4-dinitrofluorobenzene (DNFB; Sigma Chemical Co., Grade 1, approx. 98%, Lot 129C-0065, No. d-6879) by painting their shaved ventral skins with 0.1 ml of 0.5% DNFB in ethanol:acetone (3:1). The five mice in the unprimed group were shaved and topically painted on their ventral skins with the ethanol:acetone (3:1) vehicle alone. The mice in both groups were challenged with DNFB four days later. A suitable patch of skin, the ear, was chosen for challenging. One ear was designated for challenging and the other to serve as a control. The thickness of each ear across the pinna was measured using micrometer calipers. The first measurements were taken four days after priming and are plotted as day 0 in FIG. 13. Next, each mouse was subjected to the following challenge regimen: one ear was challenged with one drop of 0.35% DNFB in olive oil, and the other (unchallenged control) ear was exposed to olive oil alone. The ear thicknesses (ET) of the challenged ear and the unchallenged ear were measured daily, and the swelling responses are plotted in FIG. 13 as: [formula]
(§3) Three groups of eight-week old female C57BL/6J mice were primed to DNFB as previously described. […] Six hours later the first sets of ear measurements were taken, and one ear of each mouse was challenged.
The data in FIG. 15 is derived from three experiments using C57BL/6J mice. The measurements were taken at the time of maximal swelling, i.e., […] after challenge, and each point represents at least 9 mice.

[4] = tested on: swelling of popliteal lymph nodes; assay: Popliteal lymph node assay (Experiment 20); assay type: in vivo; settings: Balb C mice injected in the foot pad with cells from C57BL6 mice
Description: In vivo, popliteal lymph node assays were conducted on normal Balb C mice.

[5] = tested on: delayed-type hypersensitivity (DTH); assay: DTH ear swelling, comparison of sorbinil, tolrestat, WF-3681 and NSAIDs (Experiment 23, TABLE 5); assay type: in vivo, mice
Description: as §1, §2, §3
The Table has 4 columns, listing (left to right) each drug tested in column 1, drug concentrations in column 2, relative swelling in column 3, and effectiveness in column 4.

[6] = tested on: ear swelling in response to PMA; assay: Ear swelling in response to PMA (Experiment 21); settings: in vivo
Human monocytes = assay: Monocyte adherence in vitro (Experiment 16); assay type: cell-based; settings: concentrations as high as 10^-6 M/L
From the text: Human monocytes were isolated and tested for adherence in vitro in the presence and absence of sorbinil.

Human macrophages = assay: 3H-thymidine incorporation, LPS-stimulated macrophages (Experiment 17); assay type: cell-based; settings: concentrations as high as 10^-5 M/L
Description: Human macrophages were stimulated using LPS in vitro, and ^3 H-thymidine incorporation was measured.

[7] = tested on: anti-PHI.X 174 bacteriophage antibodies; assay: Phage inhibition assay of serum antibody after immunization with bacteriophage PHI.X 174 (Experiment 7); assay type: in vivo, mice; settings: sorbinil daily for five days
From the text: Antibodies generated against the bacteriophage were quantitated by a phage inhibition assay, which is based on the observation that antibodies specific for the bacteriophage will inhibit the ability of the bacteriophage to lyse bacteria. Ochs, H. D., et al., Disorders of the B-cell system, in Immunologic Disorders in Infants and Children, E. R. Stiehm, et al., eds., W. B. Sanders, Co. Philadelphia, p. 239, 1980. The data was expressed as Kv values derived according to the following formula: Rate of phage inactivation, Kv D/T×1n Po/P, where D=reciprocal of antibody dilution, T=60 minutes, Po=initial number of PFU, and P=number of plaques at 60 minutes.
Beginning with one week after this primary immunization mice were bled weekly, and serum samples from individual mice were tested for the ability to inhibit bacteriophage lysis of bacteria.

Normal mouse thymocytes = assay: 3H-thymidine incorporation, PHA plus IL-1 stimulated thymocytes (Experiment 12); assay type: cell-based; settings: concentrations as high as 10^-6 M/L; PHA in the presence of preformed IL-1
white cells = settings: in vivo
DTH reaction in ears = assay: Histologic examination of DNFB-challenged ear tissue (Experiment 5); assay type: in vivo, mice
Description: FIG. 16 depicts the ear of a primed mouse which has not been challenged with DNFB. The epidermis 22 is devoid of mononuclear infiltrate 28, as is the dermal compartment 24. A layer of cartilage 26 is located in the center of the ear. FIG. 17 represents the ear of a buffer-treated primed mouse which had been challenged 24 hours previously with DNFB. Note the pronounced edema in the dermal compartment of the skin 24 as well as the extensive mononuclear cell infiltrate (indicated by arrows 28) in both the dermis and epidermis. […] There were also fewer mononuclear cells 28 in the epidermis 22 as well.

Mouse peritoneal cells = assay: 3H-thymidine incorporation in peritoneal cells, with or without LPS (Experiment 15); assay type: cell-based; settings: concentrations as high as 10^-6 M/L; control cells or cells stimulated using LPS
[8] = tested on: thymocytes from normal mice; assay: Con A stimulated 3H-thymidine incorporation, thymocytes from normal mice in vitro (Experiment 18); assay type: cell-based; settings: concentrations as high as 10^-5 M/L
[9] = tested on: Human polymorphonuclear leukocytes (PMNs); assay: LTB4 release by polymorphonuclear leukocytes (Experiment 10); assay type: cell-based; settings: normal human PMNs
From the text: Human polymorphonuclear leukocytes (PMNs) were used to study LTB4 release, which is known to be involved in inflammation.

[10] = 11 mg/kg orally daily, four days after SRBC

## O=C1NC(=O)[C@@]2(CCOc3ccc(F)cc32)N1 [Sorbinil, 4(S)-2,3-dihydro-6-fluorospiro-(4H-1-benzopyran-4,4'-imidazolidine)-2',5'-dione]
[1]; oral administration
  Ear swelling produced by topical arachidonic acid: no effect
[1]; topical administration
  Ear swelling produced by topical arachidonic acid: no effect
[2]; [10]
  Direct plaques: 372±62 plaques per 2×10^5 cells
  Increase in spleen cellularity compared to buffer-treated control group: 46%
  Increase in the number of direct plaques (IgM antibody secreting cells) compared to buffer control: 94%
  PFC on a per spleen basis: 393,000±12,617 PFC/spleen
  Spleen cellularity: 2.12±0.26×10^8 cells/spleen
[2]; spleen cells from sorbinil-treated mice vs buffer control
  Qualitative appearance of plaques: much smaller, more irregularly shaped, and less distinct
[3]; Mus musculus, extrapolation from least squares fit line, FIG. 15, three experiments, time of maximal swelling, i.e., 2 hours after challenge, read-out: Concentration at which maximum inhibition of DTH response (no swelling) would occur
  ED100: 13.5 mg/kg
[3]; sorbinil 10 mg/kg orally
  Ear swelling (in words): almost complete inhibition of ear swelling
[3]; sorbinil orally 10, 1.0 or 0.1 mg/kg daily, DNFB-primed and challenged C57BL/6J mice
  Ear swelling / DTH response (in words): Swelling was inhibited; also recorded: dose dependent inhibition of ear swelling; also recorded: inhibits the inflammatory response; also recorded: dose dependent inhibition of the delayed-type hypersensitivity response
[4]
  Swelling of popliteal lymph nodes: no effect
[5]; 6 μM, single dose after challenge
  effectiveness (1 - R) (100%): 39%
[5]; 6 μM, single dose before challenge
  effectiveness (1 - R) (100%): 32%
[5]; concentration 6 μM
  effectiveness (1 - R) (100%): 34%
[5]; concentration 6 μM, listed as sorbinil
  effectiveness (1 - R) (100%): about 30%
[5]; concentration 10 μM
  effectiveness (1 - R) (100%): 70%
[5]; mouse, in vivo
  Effect on DTH as measured by ear swelling (in words): strong and substantially identical inhibitory effect; also recorded: effective, as a single dose, when administered either before or after the antigenic challenge
[6]
  Swelling of mouse ears in response to PMA: no effect
Human monocytes
  Adherence of monocytes: no effect
Human macrophages
  Incorporation of 3H-thymidine: no effect
[7]; one week after priming
  Kv, rate of phage inactivation (serum titer of anti-PHI.X 174 antibodies): 5.0±2.4
[7]; two weeks after primary immunization
  Kv, rate of phage inactivation (serum titer of anti-PHI.X 174 antibodies): 18.4±11.4
Normal mouse thymocytes
  Incorporation of 3H-thymidine: no effect
White cells
  White cell population (differential blood count): did not affect the population of white cells
DTH reaction in ears; primed mouse challenged 24 hours previously with DNFB, vs buffer-treated
  Edema of dermal compartment: much less edematous
DTH reaction in ears; sorbinil-treated vs challenged control mice
  Mononuclear cell infiltration in challenged ears: infiltration was reduced
Mouse peritoneal cells
  3H-thymidine incorporation: no significant effect
[8]
  3H-thymidine incorporation stimulated by Con A: no effect
[9]
  Production of LTB4: no effect
